{"source": "ChEMBL document CHEMBL1255412", "about": "“New mutation in 23S rRNA gene associated with high level of azithromycin resistance in Neisseria gonorrhoeae” (2010)", "key": {"[1]": {"test_system": "Neisseria gonorrhoeae", "assay": "Antimicrobial activity against high-level azithromycin resistant Neisseria gonorrhoeae isolate 1782 harboring A2143G mutation in peptidyltransferase loop in domain V of 23S rRNA alleles", "type": "functional"}, "[2]": {"test_system": "Neisseria gonorrhoeae", "assay": "microbe, parasite or virus in culture", "description": "Antimicrobial activity against azithromycin resistant Neisseria gonorrhoeae isolate harboring C2599T mutation in peptidyltransferase loop in domain V of 23S rRNA alleles and T insertion in mtrR gene promoter region"}, "[3]": {"test_system": "Neisseria gonorrhoeae", "assay": "Antimicrobial activity against azithromycin resistant Neisseria gonorrhoeae isolate 2498 harboring C2599T mutation in peptidyltransferase loop in domain V of 23S rRNA alleles", "type": "functional"}, "[4]": {"test_system": "Neisseria gonorrhoeae", "assay": "Antimicrobial activity against Neisseria gonorrhoeae isolate 3783", "type": "functional"}}}
{"molecule": "CC[C@H]1OC(=O)[C@H](C)[C@@H](O[C@H]2C[C@@](C)(OC)[C@@H](O)[C@H](C)O2)[C@H](C)[C@@H](O[C@@H]2O[C@H](C)C[C@H](N(C)C)[C@H]2O)[C@](C)(O)C[C@@H](C)CN(C)[C@H](C)[C@@H](O)[C@]1(C)O", "note": "[AZITHROMYCIN]", "values": [{"measurement": "MIC", "setting": "[1]", "value": "> 2050", "unit": "µg/mL"}, {"measurement": "MIC", "setting": "[2]", "value": 4, "unit": "µg/mL"}, {"measurement": "MIC", "setting": "[3]", "value": 8, "unit": "µg/mL"}, {"measurement": "MIC", "setting": "[4]", "value": 0.06, "unit": "µg/mL"}]}
